This is an account of results in patent US20240158392A1 (Janssen Biotech, Inc., priority 2021, published 2024).

Structures are written as SMILES.

Assay [1] deals with T1, SIK2 (Homo sapiens, UniProt Q9H0K1). Description: SIK2 Enzymatic Assay Version 1 (ADP Glo). The class given is biochemical. The conditions noted are these: enzyme 0.6 nM, 160 μM ATP and 140 μM HDAC5tide (each 2× final concentration); 30 minutes pre-incubation, 4 hours; ADPGlo luminescence; read-out: SIK2 ADP Glo IC50 (μM) (Test Example 1). A digest of the protocol: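 Kinase activity read as ADP production by ADP-Glo luminescence, all steps at room temperature. Compound and SIK2 (0.6 nM, a 2× concentration) were preincubated 30 min; ATP-only wells lacking peptide were the negative control; depletion 40 min, detection ≥30 min.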
For orientation: ADP-Glo turns the ADP formed in a reaction into a luminescent signal.

Assay [2] concerns the target T1, SIK2. Description: SIK2 Enzymatic Assay High Version 2 (High ATP). The format is biochemical. A digest of the protocol:
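At room temperature, enzyme (6 nM, 2× final) was preincubated with compound for 30 min, then 6 mM ATP and 400 μM HDAC5tide (both 2× final) were added for 2 h. ADP formed was measured by ADP-Glo Max (2 h reagent, 1 h detection) using luminescence.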

T1 sequence (Q9H0K1 whole entry, species assumed): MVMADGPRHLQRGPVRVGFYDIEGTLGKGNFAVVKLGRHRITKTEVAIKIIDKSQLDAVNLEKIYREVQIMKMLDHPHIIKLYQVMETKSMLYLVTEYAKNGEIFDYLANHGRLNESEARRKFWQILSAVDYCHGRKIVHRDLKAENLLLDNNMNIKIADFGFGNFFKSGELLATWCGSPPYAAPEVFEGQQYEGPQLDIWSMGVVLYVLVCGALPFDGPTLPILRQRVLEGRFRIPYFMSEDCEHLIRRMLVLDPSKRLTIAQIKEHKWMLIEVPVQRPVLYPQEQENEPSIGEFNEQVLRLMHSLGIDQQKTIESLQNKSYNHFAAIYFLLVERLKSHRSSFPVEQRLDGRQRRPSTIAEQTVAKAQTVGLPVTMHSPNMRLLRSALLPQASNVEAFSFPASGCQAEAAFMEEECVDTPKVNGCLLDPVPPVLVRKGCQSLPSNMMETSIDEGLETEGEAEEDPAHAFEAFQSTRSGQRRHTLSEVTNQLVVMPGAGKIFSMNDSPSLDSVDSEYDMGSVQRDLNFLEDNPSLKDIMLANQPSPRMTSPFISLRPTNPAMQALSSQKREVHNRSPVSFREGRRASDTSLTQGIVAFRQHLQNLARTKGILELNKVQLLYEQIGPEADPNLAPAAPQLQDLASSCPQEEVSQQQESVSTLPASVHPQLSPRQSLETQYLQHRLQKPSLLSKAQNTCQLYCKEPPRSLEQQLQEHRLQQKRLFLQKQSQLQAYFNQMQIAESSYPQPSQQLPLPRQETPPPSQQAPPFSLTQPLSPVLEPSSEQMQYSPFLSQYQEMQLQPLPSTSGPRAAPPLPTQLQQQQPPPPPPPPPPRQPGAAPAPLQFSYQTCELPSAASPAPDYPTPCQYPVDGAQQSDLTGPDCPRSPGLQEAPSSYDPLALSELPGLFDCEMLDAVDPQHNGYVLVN

What is called IC50 is the concentration at which inhibition is half-maximal. In the case of `CC1(C)CNC[C@@H](COc2ccc(C#N)cc2-c2ccn3nc(NC(=O)C4CC4)cc3c2)O1` [Example 104, N-[5-[5-cyano-2-[[(2S)-6,6-dimethylmorpholin-2-yl]methoxy]phenyl]pyrazolo[1,5-a]pyridin-2-yl]cyclopropanecarboxamide], the IC50 on SIK2 [1] is 0.00588 µM; against SIK2 [2] it was 31 nM.

As for `CN1CC[C@@H](COc2cnc(C#N)cc2-c2ccn3nc(Nc4ccncc4)cc3c2)C1` [Example 105, 5-[[(3R)-1-methylpyrrolidin-3-yl]methoxy]-4-[2-(4-pyridylamino)pyrazolo[1,5-a]pyridin-5-yl]pyridine-2-carbonitrile], the half-inhibitory concentration (IC50) at SIK2 [1] came out at 0.00951 µM; on SIK2 [2], 203 nM.

As to `CN1CC[C@@H](COc2cnc(C#N)cc2-c2ccn3nc(Nc4ccccc4)cc3c2)C1` [Example 106, 4-(2-anilinopyrazolo[1,5-a]pyridin-5-yl)-5-[[(3R)-1-methylpyrrolidin-3-yl]methoxy]pyridine-2-carbonitrile], the IC50 at SIK2 [1] came to 0.00338 µM; on SIK2 [2] it was 48.5 nM.

Regarding `CN1CC[C@@H](COc2cnc(C#N)cc2-c2ccn3nc(Nc4ccccn4)cc3c2)C1` [Example 107, 5-[[(3R)-1-methylpyrrolidin-3-yl]methoxy]-4-[2-(2-pyridylamino)pyrazolo[1,5-a]pyridin-5-yl]pyridine-2-carbonitrile], the IC50 turned out to be 0.0022 µM on SIK2 [1] and 40.1 nM at SIK2 [2].

As for `COCCN1CC[C@H](Oc2cnc(C#N)cc2-c2ccn3nc(NC(=O)C4CC4)cc3c2)C1` [Example 108, (S)—N-[5-[2-cyano-5-[(3S)-1-(2-methoxyethyl)pyrrolidin-3-yl]oxy-4-pyridyl]pyrazolo[1,5-a]pyridin-2-yl]cyclopropanecarboxamide], the IC50 on SIK2 [1] came out at 0.00527 µM; at SIK2 [2], 204 nM.

For `N#Cc1cc(-c2ccn3nc(NC(=O)C4CC4)cc3c2)c(O[C@H]2CCN(Cc3ccccn3)C2)cn1` [Example 109, (S)—N-[5-[2-cyano-5-[(3S)-1-(2-pyridylmethyl)pyrrolidin-3-yl]oxy-4-pyridyl]pyrazolo[1,5-a]pyridin-2-yl]cyclopropanecarboxamide], the figures for the IC50 on SIK2 [1] and at SIK2 [2] were 0.00422 µM and 116 nM, respectively.

As for `N#Cc1cc(-c2ccn3nc(NC(=O)C4CC4)cc3c2)c(O[C@@H]2CCN(CC(F)(F)F)C2)cn1` [Example 110, (R)—N-[5-[2-cyano-5-[(3R)-1-(2,2,2-trifluoroethyl)pyrrolidin-3-yl]oxy-4-pyridyl]pyrazolo[1,5-a]pyridin-2-yl]cyclopropanecarboxamide], the IC50 at SIK2 [1] was 0.00055 µM; against SIK2 [2], 2.85 nM.

In the case of `COCCN1CC[C@@H](Oc2cnc(C#N)cc2-c2ccn3nc(NC(=O)C4CC4)cc3c2)C1` [Example 111, (R)—N-[5-[2-cyano-5-[(3R)-1-(2-methoxyethyl)pyrrolidin-3-yl]oxy-4-pyridyl]pyrazolo[1,5-a]pyridin-2-yl]cyclopropanecarboxamide], the IC50 on SIK2 [1] amounted to 0.00261 µM; at SIK2 [2], 47.9 nM.

For the compound `N#Cc1cc(-c2ccn3nc(NC(=O)C4CC4)cc3c2)c(O[C@@H]2CCN(Cc3ccccn3)C2)cn1` [Example 112, (R)—N-[5-[2-cyano-5-[(3R)-1-(2-pyridylmethyl)pyrrolidin-3-yl]oxy-4-pyridyl]pyrazolo[1,5-a]pyridin-2-yl]cyclopropanecarboxamide], the figures for the IC50 at SIK2 [1] and on SIK2 [2] were 0.00356 µM and 81.5 nM, respectively.

On to `N#CCN1CC[C@@H](Oc2cnc(C#N)cc2-c2ccn3nc(NC(=O)C4CC4)cc3c2)C1` [Example 113, (R)—N-[5-[2-cyano-5-[(3R)-1-(cyanomethyl)pyrrolidin-3-yl]oxy-4-pyridyl]pyrazolo[1,5-a]pyridin-2-yl]cyclopropanecarboxamide], for which the values for the IC50 at SIK2 [1] and against SIK2 [2] were 0.000393 µM and 2.27 nM, respectively.

Regarding `N#CCN1CC[C@H](Oc2cnc(C#N)cc2-c2ccn3nc(NC(=O)C4CC4)cc3c2)C1` [Example 114, (S)—N-[5-[2-cyano-5-[(3S)-1-(cyanomethyl)pyrrolidin-3-yl]oxy-4-pyridyl]pyrazolo[1,5-a]pyridin-2-yl]cyclopropanecarboxamide], the IC50 at SIK2 [1] amounted to 0.000337 µM; on SIK2 [2], 6.58 nM.

For the compound `Cc1cc(-c2ccn3nc(NC(=O)C4CC4)cc3c2)c(OC2CN(C)C2)cn1` [Example 115, N-(5-(2-methyl-5-((1-methylazetidin-3-yl)oxy)pyridin-4-yl)pyrazolo[1,5-a]pyridin-2-yl)cyclopropanecarboxamide], the IC50 at SIK2 [1] was 0.0095 µM; at SIK2 [2], 159 nM.

Regarding `Cc1cc(-c2ccn3nc(Nc4ccn(C)n4)cc3c2)c(OC[C@@H]2CNCCO2)cn1` [Example 129, 5-[2-methyl-5-[[(2S)-morpholin-2-yl]methoxy]-4-pyridyl]-N-(1-methylpyrazol-3-yl)pyrazolo[1,5-a]pyridin-2-amine], the IC50 at SIK2 [1] turned out to be 0.000657 µM; on SIK2 [2] it was 8.28 nM.

With `Cc1cc(-c2ccn3nc(NC(=O)C4CC4)cc3c2)c(O[C@H]2C[C@H]3COC[C@@H](C2)N3)cn1` [Example 136, endo-N-(5-(5-(((1R,5S,7s)-3-oxa-9-azabicyclo[3.3.1]nonan-7-yl)oxy)-2-methylpyridin-4-yl)pyrazolo[1,5-a]pyridin-2-yl)cyclopropanecarboxamide], the IC50 on SIK2 [1] is 0.000208 µM; on SIK2 [2], less than 0.838 nM.

In the case of `Cc1cc(-c2ccn3nc(NC(=O)C4CC4)cc3c2)c(O[C@@H]2CCN(C)C2)cn1` [Example 137, N-[5-[2-methyl-5-[(3R)-1-methylpyrrolidin-3-yl]oxy-4-pyridyl]pyrazolo[1,5-a]pyridin-2-yl]cyclopropanecarboxamide], the IC50 turned out to be 0.00334 µM on SIK2 [1] and 70 nM against SIK2 [2].

`Cc1cc(-c2ccn3nc(NC(=O)C4CC4)cc3c2)c(O[C@H]2C[C@H]3CC[C@@H](C2)N3C)cn1` [Example 138, N-(5-(2-methyl-5-(((1R,3r,5S)-8-methyl-8-azabicyclo[3.2.1]octan-3-yl)oxy)pyridin-4-yl)pyrazolo[1,5-a]pyridin-2-yl)cyclopropanecarboxamide]: the IC50 on SIK2 [1] amounted to 0.000854 µM; against SIK2 [2], 12.9 nM.

As for `Cc1cc(-c2ccn3nc(NC(=O)C4CC4)cc3c2)c(O[C@H]2CCN(C)C2)cn1` [Example 139, N-[5-[2-methyl-5-[(3S)-1-methylpyrrolidin-3-yl]oxy-4-pyridyl]pyrazolo[1,5-a]pyridin-2-yl]cyclopropanecarboxamide], the IC50 on SIK2 [1] worked out at 0.0033 µM; on SIK2 [2], 72.9 nM.

Consider `Cc1cc(-c2ccn3nc(NC(=O)C4CC4)cc3c2)c(OC[C@@H]2CNCCO2)cn1` [Example 143, N-[5-[2-methyl-5-[[(2S)-morpholin-2-yl]methoxy]-4-pyridyl]pyrazolo[1,5-a]pyridin-2-yl]cyclopropanecarboxamide], for which the figures for the IC50 at SIK2 [1] and at SIK2 [2] were 0.000664 µM and 12.6 nM, respectively.

Turning to `Cc1cc(-c2ccn3nc(NC(=O)C4CC4)cc3c2)c(OCC2(N)COC2)cn1` [Example 144, N-[5-[5-[(3-aminooxetan-3-yl)methoxy]-2-methyl-4-pyridyl]pyrazolo[1,5-a]pyridin-2-yl]cyclopropanecarboxamide], the IC50 at SIK2 [1] came to 0.00212 µM; against SIK2 [2] it was 36.4 nM.

As to `Cc1cc(-c2ccn3nc(NC(=O)C4CC4)cc3c2)c(OCC2(N)CC(F)(F)C2)cn1` [Example 145, N-[5-[5-[(1-amino-3,3-difluoro-cyclobutyl)methoxy]-2-methyl-4-pyridyl]pyrazolo[1,5-a]pyridin-2-yl]cyclopropanecarboxamide], the IC50 at SIK2 [1] is 0.000642 µM; against SIK2 [2], 16.4 nM.

Consider `Cc1cc(-c2ccn3nc(NC(=O)C4CC4)cc3c2)c(OC[C@H]2CC[C@@H](O)CC2)cn1` [Example 148, cis-N-[5-[5-[(4-hydroxycyclohexyl)methoxy]-2-methyl-4-pyridyl]pyrazolo[1,5-a]pyridin-2-yl]cyclopropanecarboxamide], for which the half-maximal inhibitory concentration (IC50) at SIK2 [1] worked out at 0.00436 µM; against SIK2 [2], 58.3 nM.

`Cc1cc(-c2ccn3nc(NC(=O)C4CC4)cc3c2)c(OC[C@H](N)C(C)(C)C)cn1` [Example 150, N-[5-[5-[(2R)-2-amino-3,3-dimethyl-butoxy]-2-methyl-4-pyridyl]pyrazolo[1,5-a]pyridin-2-yl]cyclopropanecarboxamide]: the 50% inhibitory concentration (IC50) was found to be 0.00644 µM at SIK2 [1] and 322 nM against SIK2 [2].

For the compound `Cc1cc(-c2ccn3nc(NC(=O)C4CC4)cc3c2)c(O[C@@H]2CC[C@H](N)C2)cn1` [Example 152, N-[5-[5-[(1R,3S)-3-aminocyclopentoxy]-2-methyl-4-pyridyl]pyrazolo[1,5-a]pyridin-2-yl]cyclopropanecarboxamide], the IC50 on SIK2 [1] amounted to 0.00378 µM; at SIK2 [2], 70.1 nM.

For the compound `Cc1cc(-c2ccn3nc(NC(=O)C4CC4)cc3c2)c(O[C@@H]2CC[C@@H](N)C2)cn1` [Example 153, N-[5-[5-[(1R,3R)-3-aminocyclopentoxy]-2-methyl-4-pyridyl]pyrazolo[1,5-a]pyridin-2-yl]cyclopropanecarboxamide], the half-inhibitory concentration (IC50) amounted to 0.000688 µM at SIK2 [1] and 13.7 nM against SIK2 [2].

In the case of `Cc1cc(-c2ccn3nc(NC(=O)C4CC4)cc3c2)c(OCC2(N)CCC2)cn1` [Example 154, N-[5-[5-[(1-aminocyclobutyl)methoxy]-2-methyl-4-pyridyl]pyrazolo[1,5-a]pyridin-2-yl]cyclopropanecarboxamide], the half-inhibitory concentration (IC50) was 0.00116 µM on SIK2 [1] and 24 nM against SIK2 [2].

For the compound `Cc1cc(-c2ccn3nc(NC(=O)C4CC4)cc3c2)c(OCC2(N)CCCC2)cn1` [Example 155, N-[5-[5-[(1-aminocyclopentyl)methoxy]-2-methyl-4-pyridyl]pyrazolo[1,5-a]pyridin-2-yl]cyclopropanecarboxamide], the IC50 on SIK2 [1] stood at 0.00108 µM; at SIK2 [2], 15.6 nM.
